By Ki is commonly meant a dissociation constant, usually derived from enzyme kinetics or from competition with a known ligand.

Here are results for six compounds from ChEMBL document CHEMBL1212848 (Bioorg Med Chem, 2010).

Data set [1] relates to Cancer cell lines. Nature of the data set: Cytotoxicity against human cervical cancer cells assessed as reduction of [3H]thymidine incorporation at 2 uM after 24 to 48 hrs by scintillation counting. It counts as functional, cell-based. (Uptake of a labelled nucleoside into DNA is a usual measure of proliferation.)
Data set [2] relates to Cancer cell lines. Briefly: Cytotoxicity against human cervical cancer cells assessed as reduction of [3H]thymidine incorporation at 5 nM after 24 to 48 hrs by scintillation counting. It counts as functional, cell-based.
The target of a further data set is T1, Estrogen receptor (Homo sapiens, UniProt P03372).
T1 sequence (P03372 whole entry): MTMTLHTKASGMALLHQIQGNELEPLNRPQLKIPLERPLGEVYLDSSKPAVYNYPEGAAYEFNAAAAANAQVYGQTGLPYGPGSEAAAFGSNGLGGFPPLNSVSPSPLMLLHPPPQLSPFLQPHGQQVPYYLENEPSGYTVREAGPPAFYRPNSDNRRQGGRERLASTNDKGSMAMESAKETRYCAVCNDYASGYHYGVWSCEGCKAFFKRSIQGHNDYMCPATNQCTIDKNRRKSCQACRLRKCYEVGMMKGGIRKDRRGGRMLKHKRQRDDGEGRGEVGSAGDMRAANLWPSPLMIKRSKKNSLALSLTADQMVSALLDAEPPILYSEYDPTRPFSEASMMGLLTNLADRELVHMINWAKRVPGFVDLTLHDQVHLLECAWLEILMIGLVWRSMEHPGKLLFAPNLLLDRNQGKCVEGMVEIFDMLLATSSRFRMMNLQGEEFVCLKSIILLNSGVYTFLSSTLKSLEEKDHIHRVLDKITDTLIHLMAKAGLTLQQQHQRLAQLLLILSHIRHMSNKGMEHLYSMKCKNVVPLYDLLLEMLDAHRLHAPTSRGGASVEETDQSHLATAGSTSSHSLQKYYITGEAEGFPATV
Briefly: biochemical.

Data set [3] deals with MCF7. Nature of the data set: Cytotoxicity against human MCF7 cells assessed as reduction of cell proliferation at 1 nM to 1 uM after 96 hrs by MTT assay. It counts as functional, cell-based.
In data set [4] the test system is MCF7. Briefly: Cytotoxicity against human MCF7 cells assessed as reduction of cell proliferation at 6 uM after 96 hrs by MTT assay. It counts as functional, cell-based. A general note: Formazan colour is commonly taken as a measure of viable cells.
The subject of another data set is HeLa. Briefly: Cellular uptake in human HeLa cells assessed as retention time at 2 uM after 48 hrs by HPLC-MS analysis. Format: ADME, cell-based.
Data set [5] addresses T2, Estrogen receptor (Homo sapiens) (UniProt P03372).
T2 sequence (whole entry): T1 sequence (P03372 whole entry)
Nature of the data set: Agonist activity at human ERalpha expressed in human HeLa cells coexpressing ERE-E1b-Luc assessed as transcriptional activation after 48 hrs by luciferase reporter gene assay relative to estradiol. It counts as functional, cell-based. For orientation: Reporter assays use an easily measured gene product as a stand-in for the process of interest.

Molecules are shown by their SMILES. The source made the active and inactive calls. The calls are words filed in the database; no cut-off is given here.

For the compound `CCCC[N+](C)(C)CCOc1ccc(/C(=C(/CC)c2ccccc2)c2ccccc2)cc1.[Br-]` [TAMOXIFEN BUTYL BROMIDE], the result with Cancer cell lines [1] and in the data set on MCF7 [3] was inactive. Also, the outcome in the data set with Cancer cell lines [2] and with MCF7 [4] was Active. This compound yielded a Ki on Estrogen receptor of 13 nM. Also, in the data set with HeLa, the Time came to 10 min.
On Estrogen receptor, `CC/C(=C(\c1ccccc1)c1ccc(OCC[N+](C)(C)CC)cc1)c1ccccc1.[Br-]` [TAMOXIFEN ETHYL BROMIDE] displayed a Ki of 13.7 nM. The result in the data set with MCF7 [3] was inactive. Besides, the outcome in the data set on MCF7 [4] was Active. Besides, the Time with HeLa came to 8 min.
Take `CC/C(=C(\c1ccccc1)c1ccc(OCC[N+](C)(C)C(C)C)cc1)c1ccccc1.[Br-]` [TAMOXIFEN ISOPROPYL BROMIDE]: the result in the data set with Cancer cell lines [1] and with MCF7 [3] was inactive. Further, the outcome with Cancer cell lines [2] and with MCF7 [4] was Active. Besides, the Ki at Estrogen receptor is 25.4 nM. Further, the Activity in data set [5] is 50%. Moreover, the Time with HeLa was determined as 10 min.
On Estrogen receptor, `CC/C(=C(\c1ccccc1)c1ccc(OCC[N+](C)(C)C)cc1)c1ccccc1.[I-]` [TAMOXIFEN METHYL IODIDE] showed an inhibition constant (Ki) of 46.3 nM. Further, the result with MCF7 [3] was inactive. Moreover, the outcome in the data set on MCF7 [4] was Active. Besides, in the data set on HeLa, the Time came to 5 min.
Consider `CCC[N+](C)(C)CCOc1ccc(/C(=C(/CC)c2ccccc2)c2ccccc2)cc1.[Br-]` [TAMOXIFEN PROPYL BROMIDE], for which the result in the data set on MCF7 [3] was inactive. Besides, the outcome in the data set with MCF7 [4] was Active. Moreover, the Time with HeLa came out at 9 min.
Taken in the same sequence, the figures for `CC/C(=C(\c1ccccc1)c1ccc(OCCN(C)C)cc1)c1ccccc1` [TAMOXIFEN] were “inactive”, “Active” and 9 min.
